Measurements taken from patent EP4678639A1, “SALT OF BENZIMIDAZOLE DERIVATIVE” (JW Pharmaceutical Corporation, priority 2023, dated 2024).
Where a name gives a salt, the structure may show the parent alone.

Key:
[1] = Solid-state stress stability test (humidity 90 % RH)
Procedure: (§1) Operation and Calculation: The blank solution, standard solution, and test solution were sequentially tested under the instrument operating conditions according to the liquid chromatography method in the General Test Methods of the 12th Edition of the Korean Pharmacopoeia, and the amount of related substances was calculated using the following equation. Amount of each related; substance (%) = (AT)/(AS) × (CS)/(CT) × (Molecular weight; of the sample)/(Molecular weight; of the standard; product) × P × (1)/(RR; F) [formula] AT = Area of each related substance peak obtained from the test solution AS = Area of the tegoprazan peak obtained from the standard solution CS = Concentration of standard solution (mg/mL) CT = Concentration of test solution (mg/mL) P = Purity/Assay/Potency (%) of standard product RRF = Relative response factor (1.0)
(§2) A solid-state stability comparative test was conducted on each of the above-mentioned prepared tegoprazan acid addition salts. The stability comparative test was conducted for 1 month under the conditions shown in Table 6 below in accordance with The International Council for Harmonisation of Technical Requirements for Pharmaceuticals for Human Use (ICH) guideline, and the purity of the acid addition salt, total related substances, and the content of degradants were measured by HPLC at the initial time point and after 1 month. Total related substances and degradants were measured according to the related substance test method (HPLC).
3) Stress Stability (humidity 90 % RH)

[2] = Solid-state stress stability test (temperature 60 °C)
Procedure: as §1, §2
2) Stress Stability Test (temperature 60 °C)

[3] = Photostability test, visible light (1.2 Mlux·hr) exposure
Procedure: (§3) A photostability comparative test was conducted on each of the above-mentioned prepared tegoprazan acid addition salts. The test was conducted by exposing the sample to light with an energy of 200 W hr/m^2 of ultraviolet light and 1.2 Mlux hr of visible light in accordance with The International Council for Harmonisation of Technical Requirements for Pharmaceuticals for Human Use (ICH) guideline, with the samples packaged in a single PE bag and spread thinly enough to ensure exposure to the light source, taking humidity stability into consideration. The purity of the acid addition salts and the change in the amount of degradants at the initial time point and after exposure to ultraviolet light or visible light were measured by HPLC.

[4] = Photostability test, ultraviolet light (200 W·hr/m2) exposure
Procedure: as §3

[5] = Solid-state accelerated stability test (40 ± 2 °C/RH 75 ± 5 %)
Procedure: as §1, §2

[6] = Liquid stability comparative test (20 mg/mL in purified water, 40 °C, 24 hours, HPLC); format: physicochemical
Procedure: The analysis conditions are as follows.
Each sample was dissolved in purified water to prepare a solution with a concentration of 20 mg/mL, stored at an external temperature of 40 °C, and analyzed by HPLC at the initial time point and after 24 hours to measure purity, and the change in the generated degradant (Formula 4) was measured. The analysis of total related substances and degradants was performed by taking a liquid from a solution prepared at a concentration of 20 mg/mL, diluting it to a concentration of 4 mg/mL with the diluent of the related substance test method (HPLC), and measuring it as a test solution, and analyzing it according to the related substance test method (HPLC).

[7] = Table 11 under heading Visible Light (1.2 Mlux-hr) Exposure Test
[8] = Table 10, UV 200 W·hr/m2, PE bag
[9] = 40 ± 2 °C / RH 75 ± 5 %, 1 month

Cc1nc2c(O[C@H]3CCOc4cc(F)cc(F)c43)cc(C(=O)N(C)C)cc2[nH]1 [Hydrobromide Salt]
After 1 Month (%) Degradant ([1]; 90 % RH, 1 month): 3.698%
After 1 Month (%) Total Related substances ([1]; 90 % RH, 1 month): 3.922%
Change (%) Degradant ([1]; 90 % RH, 1 month vs initial): 1.726%
Initial (%) Degradant ([1]; Table 9, initial): 1.972%
Initial (%) Total Related substances ([1]; Table 9, initial): 2.173%
total related substances increased after 1 month ([2]; 60 °C): ≥ 5.0%
After 1 Month (%) Degradant ([2]; 60 °C, 1 month): 7.787%
After 1 Month (%) Total Related substances ([2]; 60 °C, 1 month): 8.905%
change in appearance, change in the color of the solid ([2]; 60 °C, 1 month): change in appearance
Change (%) Degradant ([2]; 60 °C, 1 month vs initial): 5.815%
Remarks ([2]; 60 °C, 1 month, appearance): Discolorat ion
Initial (%) Degradant ([2]; Table 8, initial): 1.972%
Initial (%) Total Related substances ([2]; Table 8, initial): 2.173%
Remarks ([3]; Table 11, after exposure, appearance): Discolorat ion
Initial (%) Degradant ([3]; Table 11, initial): 1.972%
Initial (%) Total Related substances ([3]; Table 11, initial): 2.173%
After (%) Degradant [3, 7]: 1.956%
After (%) Total Related substances [3, 7]: 2.227%
changes in appearance ([3]; visible light exposure): changes in appearance
After Ultraviolet Light Exposure (200 W hr/m2)(%) Degradant [4, 8]: 2.028%
After Ultraviolet Light Exposure (200 W hr/m2)(%) Total Related substances [4, 8]: 2.265%
Change (%) Degradant ([4]; Table 10, after UV exposure vs initial): 0.056%
Initial (%) Degradant ([4]; Table 10, initial): 1.972%
Initial (%) Total Related substances ([4]; Table 10, initial): 2.173%
After 1 Month (%) Degradant [5, 9]: 2.188%
After 1 Month (%) Total Related substances [5, 9]: 2.519%
Change (%) Degradant ([5]; 40 ± 2 °C / RH 75 ± 5 %, 1 month vs initial): 0.216%
Initial (%) Total Related substances ([5]; Table 7, initial): 2.173%
Initial (%) Degradant ([5]; Table 7, initial, degradant of Formula 4): 1.972%
increase in total related substances after 1 month ([5]; accelerated stability): ≥ 0.3%

Cc1nc2c(O[C@H]3CCOc4cc(F)cc(F)c43)cc(C(=O)N(C)C)cc2[nH]1 [Hydrochloride Salt (Amorphous Form)]
Amount of Change Degradant (%) [6]: 0.21%
After 24 hours Purity (%) ([6]; 20 mg/mL in purified water, 40 °C, 24 hours): 99.69%
Initial Purity (%) ([6]; 20 mg/mL in purified water, initial time point): 99.94%
After 1 Month (%) Total Related substances ([1]; 90 % RH, 1 month): 0.335%
change ([1]; 90 % RH, 1 month): ≤ 0.15%
Initial (%) Total Related substances ([1]; Table 9, initial): 0.207%
After 1 Month (%) Total Related substances ([2]; 60 °C, 1 month): 1.536%
Initial (%) Total Related substances ([2]; Table 8, initial): 0.207%
Change in Quality (%) 60 °C (4 weeks) Purity ([2]; Table 12 summary): -1.329%
Initial (%) Total Related substances ([3]; Table 11, initial): 0.207%
After (%) Total Related substances [3, 7]: 0.637%
After Ultraviolet Light Exposure (200 W hr/m2)(%) Total Related substances [4, 8]: 0.313%
Initial (%) Total Related substances ([4]; Table 10, initial): 0.207%
After 1 Month (%) Total Related substances [5, 9]: 0.467%
Initial (%) Total Related substances ([5]; Table 7, initial): 0.207%
Change in Quality (%) Accelerated (4 weeks) Purity ([5]; Table 12 summary): -0.260%

maleate
solid precipitation / solution state ([6]; stored at 40 °C for 24 hours): a solid precipitated
absorb moisture and deliquesce / melted ([1]; 90 % RH): deliquesced
